Test results reported in patent publication US20090082388A1 (ACADIA PHARMACEUTICALS INC., priority 2007, published 2009).

Tests used:
C57 BK/6 mice = conditions: test phase, FIGS. 5 and 6
Protocol: Subjects were male, C57 BK/6 mice purchased from Harlan Laboratories, weighing 15-20 g upon arrival. Animals were housed 8 per cage with food and water available ad libitum. Animals were housed on a 12 hr light cycle (lights on 6 am) for 4-7 days prior to behavioral testing.
Novel object recognition (NOR) was conducted in a novel environment consisting of a white plastic tub measuring 45.7×33.7×19 cm. Prior to each trial the bottom of the tub was covered with a piece of plastic lined bench top paper. There were two sets of identical objects chosen so that when given an opportunity to explore, mice would evenly divide exploration time between the objects. “A” objects were yellow, ceramic, 12-sided ramekins measuring 4 cm high×7 cm diameter. “B” objects were 8×8×4 cm stainless steel, 4-sided ramekins.
At the beginning of each test day, animals were placed in groups of 6 into clean cages. […]
During the sample phase, two identical objects (“A” or “B”, objects described above) were placed into the NOR chamber. […] The time spent exploring at each position was recorded. Directly sniffing or touching the object was recorded as exploration. […]
The test phase was conducted one to two hours after the sample phase. […] The test sessions were recorded on video and scored by an observer blind to each subject's treatment condition. Any time spent directly sniffing or touching an object was counted as exploration. […]

[1] = cited from earlier work
[2] = tested on: amphetamine-induced hyperactivity in mice; assay: Amphetamine-induced hyperactivity with tacrine or xanomeline; format: in vivo; conditions: amphetamine 3 mg/kg, pimavanserin 0.03 mg/kg where combined
Protocol: This study was conducted in acrylic chambers (42 cm×42 cm×30 cm) equipped with 16 infrared photobeams along each horizontal axis (front-to-back and side-to-side, from Accuscan Instruments, Inc., Columbus, Ohio). […] Vehicle or a drug (either tacrine or xanomeline) was injected 30 minutes prior to entering activity chambers. Amphetamine (3 mg/kg) was injected into mice 15 minutes prior to entering motor activity chambers. Mice had no prior exposure to the chambers and each dose combination was tested in separate groups of mice.
Activity was measured as total distance traveled (DT) in centimeters and was determined across a 15 minute session. Dose response curves were constructed for the drug in the presence of either vehicle or a fixed dose of pimavanserin. In order to generate dose-response curves, raw DT data were converted to percent inhibition, % MPI=((DT drug or drug combination−DT amphetamine control)/(DT vehicle control−DT amphetamine control))*100. A linear regression analysis was then conducted to determine the theoretical dose that would produce a 50% reduction of activity (ED50) and 95% confidence interval.

[3] = Clearance from in vitro human microsomes; format: in vitro ADME; conditions: read-out: clearance rate from in vitro human microsomes
[4] = biological target: dopamine receptors including the D2 and D4 receptors; assay: Affinity to dopamine receptors; format: binding
[5] = tested on: 31 of the 36 human monoaminergic receptors; assay: Functional activity at human monoaminergic receptors; conditions: 5-HT1A, 1B, 1D, 1E, 1F, 2B, 3, 4, 6A, 7A; adrenergic α1A, α1B, α1D, α2A, α2B, β2; dopamine D1-D4; histamine H1-H3
[6] = tested on: mice receiving ICV infusion of amyloid β protein fragment (25-35) or saline (sham); assay: Amphetamine-induced hyperactivity study with amyloid β protein; format: in vivo; conditions: pimavanserin 0.3 mg/kg, amphetamine 3 mg/kg, FIG. 8
Protocol: This study was conducted in acrylic chambers (42 cm×42 cm×30 cm) equipped with 16 infrared photobeams along each horizontal axis (front-to-back and side-to-side, from Accuscan Instruments, Inc. (Columbus, Ohio)). Subjects were mice receiving ICV infusion of amyloid β protein fragment (25-35) or ICV infusion of saline (sham) for 7-10 days.
An amphetamine-induced hyperactivity study was conducted on the subjects. Subjects were injected with amphetamine (3 mg/kg) or vehicle 15 minutes prior to entering motor activity chambers. Activity was measured as a total distance traveled (DT) in centimeters (cm) and was determined in 20 minute increments across a 60 minute session.
Activity was measured as a total distance traveled (DT) in centimeters (cm) and was determined in 20 minute increments across a 60 minute session.

[7] = Half-life upon oral administration to humans; conditions: human, in vivo
[8] = tested on: mice with a deletion of the M1 muscarinic receptor (M1KO) or wild-type (WT) controls; assay: Hyperactivity study with M1 knock-out mice; format: in vivo
Protocol: A linear regression analysis was then conducted to determine the theoretical dose that would produce a 50% reduction of activity (ED50) and 95% confidence interval. Mice had no prior exposure to the chambers and each dose combination was tested in separate groups of mice.

| microsomal CLint [3] [µL/min/mg] | pKi to dopamine receptors including D2 and D4 [4] | functional activity (pEC50 or pKi) [5] | half-life [7] [h] | SMILES | percent of time spent exploring a novel object (C57 BK/6 mice) | patients with elevated liver transaminases [1] | total distance traveled ([2]; 15 minute session, FIGS. 1 and 3) | percent inhibition of amphetamine-induced hyperactivity ([2]; FIGS. 2 and 4) | distance traveled following amphetamine, amyloid β mice ([6]; amyloid β mice) | distance traveled following amphetamine, control mice ([6]; sham (control) mice) | amphetamine-induced activity, M1KO subjects ([8]; M1KO mice, amphetamine 3 mg/kg ip, FIG. 9) | amphetamine-induced activity, WT subjects ([8]; WT mice, amphetamine 3 mg/kg ip, FIG. 9) | percent inhibition of amphetamine-induced hyperactivity ([8]; as a function of pimavanserin dosage, FIG. 10) | locomotor activity, pimavanserin alone ([8]; no amphetamine, compared with vehicle controls, pimavanserin 0.03 or 0.3 mg/kg, FIG. 9) |
| --- | --- | --- | --- | --- | --- | --- | --- | --- | --- | --- | --- | --- | --- | --- |
|  |  |  |  | Nc1c2c(nc3ccccc13)CCCC2 [tacrine] | also increased | about 30% | total distance traveled decreased | greater inhibition of amphetamine-induced hyperactivity |  |  |  |  |  |  |
| < 10 | < 6 | < 6 | ~55 | CC(C)COc1ccc(CNC(=O)N(Cc2ccc(F)cc2)C2CCN(C)CC2)cc1 [Pimavanserin, N-(1-methylpiperidin-4-yl)-N-(4-fluorophenylmethyl)-N′-(4-(2-methylpropyloxy)phenylmethyl)carbamide] |  |  |  |  | reversed the augmented locomotor response to amphetamine | did not reduce the hyperactivity induced by amphetamine | reversed the augmented amphetamine response | did not alter amphetamine-induced activity | increased the inhibition of amphetamine-induced hyperactivity | no significant effect on locomotor activity |
